Laboratory results taken from patent US20090092662A1, “LIPOSOME FORMULATIONS OF BORONIC ACID COMPOUNDS” (priority 2007, published 2009).
Like-named read-outs stand apart in the source and are kept apart here.

Columns and labels:
[1] = ITC drug binding study of complexing reagents to bortezomib; conditions: pH 9.5, 100 mM glycine, 30° C., bortezomib titrated into complexing reagent
Method: The binding of the various complexing reagents to bortazomib were investigated by isothermal titration calorimetry (VP-ITC, MicroCal, Northampton, Mass.) under controlled parameters. […] The pH level was checked twice and adjustments were made as necessary to within 0.2 units. The solutions were degassed for 10-15 min. […] The experiments were conducted at 30° C. […] Data processing to generate the binding parameters was performed using the software program provided by the ITC manufacture (Microcal origin v5.0).

[2] = system: human prostate cancer xenograft; conditions: human prostate xenograft model; cited from earlier work
lung cancer xenograft = lung cancer xenograft model; cited from earlier work
[3] = cited from earlier work
tumor lines = conditions: range of tumor lines, NCI in vitro screen; cited from earlier work

| SMILES | K [1] [mol⁻¹] | antitumor activity [2] | antitumor activity (lung cancer xenograft) | maximum tolerated dose ([3]; intravenous bolus on days 1, 4, 8, and 11 of a 3-week cycle) [mg/m^2] | maximum tolerated dose ([3]; intravenously once or twice weekly, patients with solid tumors) [mg/m^2] | cytotoxicity (tumor lines) |
| --- | --- | --- | --- | --- | --- | --- |
| OCC(O)CNCC(O)C(O)C(OC1OC(CO)C(O)C(O)C1O)C(O)CO (stereo not drawn) [Example 5] | 2366 |  |  |  |  |  |
| CC(C)C[C@H](NC(=O)[C@H](Cc1ccccc1)NC(=O)c1cnccn1)B(O)O [bortezomib] |  | had antitumor activity | had antitumor activity | 1.56 | 1.3 | showed cytotoxicity against a range of tumor lines |
